Test results taken from patent US20060106042A1, “Substituted heterocyclpyrmidines” (priority 2002, published 2006).
Where two headings read alike, the source gives them in different places.

Experiments:
[1] = logP determination by reversed-phase HPLC (EEC Directive 79/831 Annex V.A8); type: physicochemical; conditions: for logP a): acidic range: 0.1% aqueous phosphoric acid/acetonitrile gradient, C18, 43° C.
Description: (a) Mobile phases for the determination of the acidic range: 0.1% aqueous phosphoric acid, acetonitrile; linear gradient from 10% acetonitrile to 90% acteonitrile—the corresponding measurement results in Table 1 are marked^a). […]

[2] = tested on: Meloidogyne incognita; experiment: Meloidogyne test (gall formation on lettuce roots); type: in vivo; conditions: for pest or weed control at 20 ppm: Meloidogyne incognita, 336 h, after 14 d, nematicidal action by gall formation on lettuce, read-out: Kill rate in % after 14 d; for kill rate: 20 ppm, Meloidogyne test as described
Protocol: • Solvent: 7 parts by weight of dimethylformamide • Emulsifier: 2 parts by weight of alkylaryl polyglycol ether
To produce a suitable preparation of active compound, 1 part by weight of active compound is mixed with the stated amounts of solvent and emulsifier, and the concentrate is diluted with water to the desired concentration.
Vessels are filled with sand, solution of active compound, Meloidogyne incognita egg/larvae suspension and lettuce seeds. The lettuce seeds germinate and the plants develop. On the roots, galls are formed.
After the desired period of time, the nematicidal action is determined in % using the formation of galls. 100% means that no galls were found; 0% means that the number of galls on the treated plants corresponds to that of the untreated control.

[3] = reversed-phase HPLC column (C18); acidic range: 0.1% aqueous phosphoric acid/acetonitrile gradient, C18, 43° C.; read-out: logP a)

| chromatographic logP [1, 3] | chromatographic logP ([1]; reversed-phase HPLC column (C18), pH 2.3, read-out: logP (pH 2.3)) | Structure (SMILES) | pest or weed control at 20 ppm [2] [%] | logP a) [1] | kill rate [2] [%] |
| --- | --- | --- | --- | --- | --- |
| 1.56 |  | FC(F)=C(F)CCSc1nccc(-c2nccs2)n1 [Example 12] | 100 |  |  |
| 2.92 |  | FC(F)=C(F)CCSc1nccc(-c2cnccn2)n1 [Example 16] | 100 |  |  |
|  |  | FC(F)=C(F)CCSc1nccc(-c2ccc[nH]2)n1 [Example 21] | 100 |  |  |
| 4.81 |  | FC(F)=C(F)CCSc1nccc(-c2ccc3ccccc3n2)n1 [Example 34] | 100 |  |  |
| 2.55 |  | Cc1cc(=O)[nH]n1-c1ccnc(SCCC=C(F)F)n1 [Example 39] | 100 |  |  |
|  |  | FC(F)=C(F)CCSc1nccc(-n2cccc2)n1 [Example 41] | 100 |  |  |
| 5.57 |  | FC(F)=CCCSc1nccc(-c2nc3ccc(Cl)cc3s2)n1 [Example 45] | 100 |  |  |
| 2.17 |  | COc1ccc(-c2ccnc(SCCC(F)=C(F)F)n2)nc1 [Example 49] | 100 |  |  |
| 4.85 |  | FC(F)=C(F)CCSc1nccc(-c2cc3ccccc3s2)n1 [Example 57] | 100 |  |  |
| 3.82 |  | FC(F)=C(F)CCSc1nccc(-c2ccsc2)n1 [Example 60] | 100 |  |  |
| 4.79 |  | Cc1cc(-c2ccnc(SCCC(F)=C(F)F)n2)c(C)s1 [Example 62] | 100 |  |  |
| 5.55 |  | FC(F)=C(F)CCSc1nccc(-c2cc(Cl)sc2Cl)n1 [Example 64] | 100 |  |  |
|  |  | Cc1nn(-c2ccnc(SCCC=C(F)F)n2)cc1Br [Example 82] |  | logP '2 4.76^a) | 100 |
|  |  | CC(C)Oc1cnn(-c2ccnc(SCCC=C(F)F)n2)c1 [Example 85] |  | logP = 4.26^a) | 100 |
|  |  | Cc1cc(C)n(-c2ccnc(SCCC=C(F)F)n2)n1 [Example 86] |  | logP = 3.95^a) | 100 |
|  |  | FC(F)=CCCSc1nccc(-n2ncc3ccccc32)n1 [Example 87] |  | logP = 4.26^a) | 100 |
|  |  | FC(F)=CCCSc1nccc(-n2cnc(Cl)c2Cl)n1 [Example 88] |  | logP = 3.57^a) | 100 |
|  |  | FC(F)=CCCSc1nccc(-n2cnc(-c3ccccc3)c2)n1 [Example 92] |  | logP = 3.45^a) | 100 |
|  |  | Nc1nn(-c2ccnc(SCCC=C(F)F)n2)cc1Br [Example 93] |  | logP = 3.15^a) | 100 |
|  |  | Nc1ccn(-c2ccnc(SCCC=C(F)F)n2)n1 [Example 97] |  | logP = 2.31^a) | 100 |
|  |  | N#Cc1cccn1-c1ccnc(SCCC=C(F)F)n1 [Example 104] |  | logP = 3.23^a) | 100 |
|  |  | Cc1nccn1-c1ccnc(SCCC=C(F)F)n1 [Example 107] |  | logP = 1.30^a) | 100 |
|  |  | FC(F)=CCCSc1nccc(-n2cnc(Cl)n2)n1 [Example 109] |  | logP = 3.31^a) | 100 |
|  |  | O=[N+]([O-])c1ncn(-c2ccnc(SCCC=C(F)F)n2)n1 [Example 110] |  | logP = 2.95^a) | 100 |
|  |  | O=C1CCC(=O)N1c1ccnc(SCCC=C(F)F)n1 [Example 119] |  |  | 100 |
|  |  | FC(F)=CCCSc1nccc(-n2cccc2)n1 [Example 120] |  |  | 100 |
|  |  | FC(F)=CCCSc1nccc(-n2nccn2)n1 [Example 125] |  |  | 100 |
|  | 3.3 | FC(F)=CCCSc1nccc(Cl)n1 [Example (II-1), 4-chloro-2-[(4,4-difluoro-3-butenyl)-sulfanyl]-pyrimidine] |  |  |  |

| Structure (SMILES) | chromatographic logP [1, 3] | chromatographic logP ([1]; reversed-phase HPLC column (C18), pH 2.3, read-out: logP (pH 2.3)) | pest or weed control at 20 ppm [2] [%] | logP a) [1] | kill rate [2] [%] |
| --- | --- | --- | --- | --- | --- |
| FC(F)=C(F)CCSc1nccc(-n2cccn2)n1 [Example 22] | 3.27 |  | 100 |  |  |
| FC(F)=C(F)CCSc1nccc(-c2cccs2)n1 [Example 28] | 3.84 |  | 100 |  |  |
